Laboratory results reported in PubChem BioAssay AID248 (DTP/NCI, 2004).
Several values for one entry are separate records, joined by “and”; a condition that tells them apart may be missing. Identical values can stand only once. Toxic doses and inconclusive results are not listed. No stated cut-off is given here; in the data, active means T/C of 150% or more; inactive means T/C below 125%.

System: L1210 leukemia ip in BDF1 mice, survival T/C
Assay: NCI In Vivo Anticancer Drug Screen. Data for tumor model L1210 Leukemia (intraperitoneal) in B6D2F1 (BDF1) mice
Conditions: endpoint: mean survival time, higher = longer survival
Method in brief: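 Transplanted-tumor mice were given test agent; controls received vehicle only. Survival readings from the two groups were divided (treated over control).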

[1] = dose: 100.0 mg/kg/injection, schedule: Q01DX001 (ip), vehicle: saline
[2] = dose: 200.0 mg/kg/injection, schedule: Q01DX001 (ip), vehicle: saline
[3] = dose: 100.0 mg/kg/injection, schedule: Q04DX002 (ip), vehicle: Klucel (hydroxypropylcellulose) (HPC)
[4] = dose: 100.0 mg/kg/injection, schedule: Q04DX003 (ip), vehicle: Klucel (hydroxypropylcellulose) (HPC)
[5] = dose: 200.0 mg/kg/injection, schedule: Q04DX003 (ip), vehicle: Klucel (hydroxypropylcellulose) (HPC)
[6] = dose: 200.0 mg/kg/injection, schedule: Q04DX002 (ip), vehicle: Klucel (hydroxypropylcellulose) (HPC)
[7] = dose: 400.0 mg/kg/injection, schedule: Q04DX002 (ip), vehicle: Klucel (hydroxypropylcellulose) (HPC)
[8] = dose: 100.0 mg/kg/injection, schedule: Q01DX001 (ip), vehicle: carboxymethylcellulose (CMC)
[9] = dose: 200.0 mg/kg/injection, schedule: Q01DX001 (ip), vehicle: carboxymethylcellulose (CMC)
[10] = dose: 400.0 mg/kg/injection, schedule: Q01DX001 (ip), vehicle: carboxymethylcellulose (CMC)
[11] = dose: 100.0 mg/kg/injection, schedule: Q04DX003 (ip), vehicle: saline
[12] = dose: 200.0 mg/kg/injection, schedule: Q04DX003 (ip), vehicle: saline
[13] = dose: 400.0 mg/kg/injection, schedule: Q04DX003 (ip), vehicle: saline
[14] = dose: 100.0 mg/kg/injection, schedule: Q01DX009 (ip), vehicle: Klucel (hydroxypropylcellulose) (HPC)
[15] = dose: 200.0 mg/kg/injection, schedule: Q01DX009 (ip), vehicle: Klucel (hydroxypropylcellulose) (HPC)
[16] = dose: 400.0 mg/kg/injection, schedule: Q01DX009 (ip), vehicle: Klucel (hydroxypropylcellulose) (HPC)
[17] = dose: 400.0 mg/kg/injection, schedule: Q04DX003 (ip), vehicle: Klucel (hydroxypropylcellulose) (HPC)
[18] = dose: 100.0 mg/kg/injection, schedule: Q01DX001 (ip), vehicle: saline with Tween-80
[19] = dose: 200.0 mg/kg/injection, schedule: Q01DX001 (ip), vehicle: saline with Tween-80
[20] = dose: 400.0 mg/kg/injection, schedule: Q01DX001 (ip), vehicle: saline with Tween-80
[21] = dose: 400.0 mg/kg/injection, schedule: Q01DX001 (ip), vehicle: saline

Measured: T/C

O=C(O)c1ccccc1NC(c1ccccc1)c1ccc2cccnc2c1O (stereo not given)
inactive: [1] 89 % of control | [2] 89 % of control

NC(=O)Oc1c(Cl)cc(Cl)c(Cl)c1[N+](=O)[O-]
inactive: dose: 25.0 mg/kg/injection, schedule: Q04DX002 (ip), vehicle: Klucel (hydroxypropylcellulose) (HPC) 97 % of control | dose: 50.0 mg/kg/injection, schedule: Q04DX002 (ip), vehicle: Klucel (hydroxypropylcellulose) (HPC) 104 % of control | [3] 97 % of control

CCCCCCCCCCCCC1C(=O)NC(=S)NC1=O
inactive: dose: 75.0 mg/kg/injection, schedule: Q01DX001 (ip), vehicle: other 97 % of control and 100 % of control | dose: 150.0 mg/kg/injection, schedule: Q01DX001 (ip), vehicle: other 101 % of control and 113 % of control | dose: 300.0 mg/kg/injection, schedule: Q01DX001 (ip), vehicle: other 103 % of control

CCOC(=O)C(O)(C(=O)OCC)C1C(=O)c2ccccc2C1=O
inactive: dose: 50.0 mg/kg/injection, schedule: Q04DX003 (ip), vehicle: Klucel (hydroxypropylcellulose) (HPC) 91 % of control | [4] 98 % of control | [5] 99 % of control

CC1(C)N=C(N)N=C(N)N1c1cccc(CO)c1
inactive: [1] 96 % of control | [2] 105 % of control

CC(=O)OC(c1ccccc1)C(C)C(OC(C)=O)(C(F)(F)F)C(F)(F)F (stereo not given)
inactive: dose: 100.0 mg/kg/injection, schedule: Q01DX009 (ip), vehicle: saline with Tween-80 102 % of control | dose: 100.0 mg/kg/injection, schedule: Q04DX003 (ip), vehicle: saline with Tween-80 102 % of control | dose: 200.0 mg/kg/injection, schedule: Q01DX009 (ip), vehicle: saline with Tween-80 98 % of control | dose: 200.0 mg/kg/injection, schedule: Q04DX003 (ip), vehicle: saline with Tween-80 94 % of control | dose: 400.0 mg/kg/injection, schedule: Q01DX009 (ip), vehicle: saline with Tween-80 100 % of control | dose: 400.0 mg/kg/injection, schedule: Q04DX003 (ip), vehicle: saline with Tween-80 93 % of control

Cc1ccc(NC(=O)C(c2ccc(Cl)cc2)c2ccc(Cl)cc2)cc1
inactive: [3] 96 % of control | [6] 100 % of control | [7] 96 % of control

CC(C)C(NC(=O)CI)C(=O)Nc1ccc(C(=O)O)c(O)c1 (stereo not given)
inactive: [4] 108 % of control | [5] 94 % of control

COC(=O)C1OC1c1ccc(OC)c(OC)c1 (stereo not given)
inactive: [8] 95 % of control | [9] 97 % of control | [10] 101 % of control

COc1ccccc1C(=O)N/N=C\c1ccc(Cl)cc1Cl
inactive: dose: 100.0 mg/kg/injection, schedule: Q01DX009 (ip), vehicle: saline 111 % of control | [11] 122 % of control | dose: 200.0 mg/kg/injection, schedule: Q01DX009 (ip), vehicle: saline 97 % of control | [12] 103 % of control | dose: 400.0 mg/kg/injection, schedule: Q01DX009 (ip), vehicle: saline 94 % of control | [13] 100 % of control

O=[N+]([O-])c1cc(F)c(F)cc1F
inactive: [4] 98 % of control | [5] 107 % of control

NC(=S)N/N=C/c1cc(Br)cc(Br)c1O
inactive: [3] 95 % of control | [6] 91 % of control | [7] 100 % of control

CCCCCCCCCCCCCCCCCCNC(=O)Oc1ccc(Cl)c(C)c1
inactive: [14] 88 % of control | dose: 100.0 mg/kg/injection, schedule: Q04DX003 (ip), vehicle: gum acacia 88 % of control | [15] 92 % of control | dose: 200.0 mg/kg/injection, schedule: Q04DX003 (ip), vehicle: gum acacia 86 % of control | [16] 92 % of control | dose: 400.0 mg/kg/injection, schedule: Q04DX003 (ip), vehicle: gum acacia 89 % of control

Cn1c(C=O)cc(=O)[nH]c1=S
inactive: dose: 50.0 mg/kg/injection, schedule: Q01DX009 (ip), vehicle: Klucel (hydroxypropylcellulose) (HPC) 92 % of control | [14] 93 % of control | [4] 100 % of control | [15] 93 % of control | [5] 105 % of control | [17] 100 % of control

Cn1c(=S)[nH]c2cn[nH]c2c1=O
inactive: [18] 93 % of control | [19] 97 % of control | [20] 89 % of control

CC(=O)C1CCC2C3CCC4CC(O)CCC4(C)C3CCC12C#N (stereo not given)
inactive: dose: 100.0 mg/kg/injection, schedule: Q01DX009 (sc), vehicle: steriod suspending solution 101 % of control | dose: 100.0 mg/kg/injection, schedule: Q04DX003 (sc), vehicle: steriod suspending solution 93 % of control | dose: 200.0 mg/kg/injection, schedule: Q01DX009 (sc), vehicle: steriod suspending solution 108 % of control | dose: 200.0 mg/kg/injection, schedule: Q04DX003 (sc), vehicle: steriod suspending solution 102 % of control | dose: 400.0 mg/kg/injection, schedule: Q01DX009 (sc), vehicle: steriod suspending solution 108 % of control | dose: 400.0 mg/kg/injection, schedule: Q04DX003 (sc), vehicle: steriod suspending solution 104 % of control

Cc1ccc(S(=O)(=O)OCC2C(COS(=O)(=O)c3ccc(C)cc3)C3CCC2C3C(c2ccccc2)c2ccccc2)cc1 (stereo not given)
inactive: [14] 103 % of control | [4] 98 % of control | [15] 94 % of control | [5] 102 % of control | [16] 111 % of control | [17] 96 % of control

COc1ccc(C=Nc2ccccc2C(=O)O)cc1
inactive: [18] 108 % of control | [19] 105 % of control | [20] 93 % of control

O=C(O)/C(=C\CCCC/C=C(\CCO)C(=O)O)CCO
inactive: [14] 102 % of control | [4] 94 % of control | [15] 99 % of control | [5] 102 % of control | [16] 102 % of control | [17] 96 % of control

COc1ccc2c3c(c4cc(OC)c(OC)cc4c2c1)CN1CCC[C@H]1[C@@H]3O
inactive: dose: 0.57 mg/kg/injection, schedule: Q01DX Z (ip), vehicle: water 103 % of control | dose: 0.86 mg/kg/injection, schedule: Q01DX Z (ip), vehicle: water 106 % of control | dose: 1.3 mg/kg/injection, schedule: Q01DX Z (ip), vehicle: water 111 % of control | dose: 2.0 mg/kg/injection, schedule: Q01DX Z (ip), vehicle: water 119 % of control | dose: 9.0 mg/kg/injection, schedule: Q01DX015 (ip), vehicle: acid diluted with saline 118 % of control | dose: 12.0 mg/kg/injection, schedule: Q01DX015 (ip), vehicle: acid diluted with saline 112 % of control

CCN(CC)CC(OC(=O)C(c1ccccc1)c1ccccc1)C(COC)OC (stereo not given)
inactive: dose: 55.0 mg/kg/injection, schedule: Q01DX Z (ip), vehicle: saline 109 % of control | dose: 83.0 mg/kg/injection, schedule: Q01DX Z (ip), vehicle: saline 96 % of control | dose: 125.0 mg/kg/injection, schedule: Q01DX Z (ip), vehicle: saline 91 % of control

CSCCC(NCc1cc(=O)[nH]c(=O)[nH]1)C(=O)O (stereo not given)
inactive: [11] 97 % of control | [12] 101 % of control | [13] 95 % of control

CC(=O)Oc1ccc(/C=C/C(=O)O)cc1OC(C)=O
inactive: dose: 25.0 mg/kg/injection, schedule: Q04DX002 (ip), vehicle: saline with Tween-80 101 % of control | dose: 50.0 mg/kg/injection, schedule: Q04DX002 (ip), vehicle: saline with Tween-80 97 % of control | dose: 100.0 mg/kg/injection, schedule: Q04DX002 (ip), vehicle: saline with Tween-80 94 % of control | dose: 200.0 mg/kg/injection, schedule: Q04DX002 (ip), vehicle: saline with Tween-80 87 % of control | dose: 400.0 mg/kg/injection, schedule: Q04DX002 (ip), vehicle: saline with Tween-80 93 % of control

O=C1c2ccccc2-c2cccc(I)c21
inactive: [8] 99 % of control | [9] 101 % of control | [10] 92 % of control

OCc1nc2cc(Cl)c(Cl)cc2[nH]1
inactive: [1] 93 % of control | [2] 96 % of control | [21] 102 % of control

Cc1ccc(-n2cnnn2)cc1
inactive: [1] 103 % of control | [2] 104 % of control | [21] 103 % of control
